According to US8822471B2, “Compounds, pharmaceutical compositions and uses thereof” (Boehringer Ingelheim International GmbH, priority 2011, dated 2014):

target: T1, human GPR119 (Homo sapiens, UniProt Q8TDV5); test: AlphaScreen cAMP assay in MIN6 cells stably transfected with human GPR119; assay type: cell-based; conditions: Min-6/hGPR119 cells, AlphaScreen cAMP Assay Kit, 45 minutes incubation at room temperature
T1 construct: expression vector for human GPR119 cDNA (Acc. No. NP_848566); expressed in transfected cells
T1 sequence (Q8TDV5 1-335): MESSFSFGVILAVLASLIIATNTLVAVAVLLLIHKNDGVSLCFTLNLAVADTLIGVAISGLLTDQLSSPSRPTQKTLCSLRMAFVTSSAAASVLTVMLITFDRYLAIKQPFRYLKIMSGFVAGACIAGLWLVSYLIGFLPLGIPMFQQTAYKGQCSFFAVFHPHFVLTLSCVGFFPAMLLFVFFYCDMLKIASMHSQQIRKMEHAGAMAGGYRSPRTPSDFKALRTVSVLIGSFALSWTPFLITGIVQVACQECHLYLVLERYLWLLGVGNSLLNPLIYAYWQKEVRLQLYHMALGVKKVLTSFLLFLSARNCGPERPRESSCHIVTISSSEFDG
Experimental: The compounds of formula I according to the invention modulate the activity of the G-protein-coupled receptor GPR119. The effect of the compounds on the activation of GPR119 and on the stimulation of intracellular cAMP concentration is determined using the AlphaScreen cAMP Assay Kit (Cat. No. #6760625R) made by PerkinElmer.
MIN6 cells [Miyazaki J et al. Endocrinology. 1990 July; 127(1):126-32] are stably transfected with an expression vector for human GPR119 cDNA (Acc. No. NP_848566). Min-6/hGPR119 cells are cultured in DMEM, 10% FBS, 50 μM β-mercaptoethanol, 0.3 mg/mL Geniticin, 2 mM GlutaMAX at 37° C. 5% CO2. For the assay, the cells are seeded in Optiplates (white, 384-well, 160 W-barcoded, TC, sterile with lid, Cat. No. #6007688 (Perkin Elmer); 10000 cells/well; 50 μl). The plates covered with lids are then incubated for 24 hours at 37° C./5% CO2. After the medium is aspirated from the wells completely, 10 μl of the test compound are added, the compounds are diluted using stimulating buffer (140 mM NaCl, 3.6 mM KCl, 0.5 mM NaH2PO4, 0.5 mM MgSO4, 1.5 mM CaCl2, 10 mM Hepes, 5 mM NaHCO3; pH 7.4. 0.5 mM IBMX and 0.1% BSA, the final DMSO concentration is 1%). After 45 minutes incubation at room temperature (approx. 20° C.), the cAMP concentrations are determined using the AlphaScreen cAMP Assay Kit (Cat. No. #6760625R from PerkinElmer).

| EC50 | Compound |
| --- | --- |
| 204 nM | CCc1noc(N2CCC(N(C(=O)c3ccc(-c4ccc(C(N)=O)cc4)cc3)C3CC3)CC2)n1 [Example 38, Biphenyl-4,4′-dicarboxylic acid 4-amide 4′-{cyclopropyl-[1-(3-ethyl-[1,2,4]oxadiazol-5-yl)-piperidin-4-yl]-amide}] |
| 87 nM | NC(=O)c1ccc(-c2ccc(C(=O)N(C3CC3)C3CCN(c4nc(-c5ccccc5)no4)CC3)cc2)cc1 [Example 39, Biphenyl-4,4′-dicarboxylic acid 4′-amide 4-{cyclopropyl-[1-(3-phenyl-[1,2,4]oxadiazol-5-yl)-Piperidin-4-yl]-amide}] |
| 11 nM | O=C(c1ccc(-c2cnco2)cc1)N(C1CC1)C1CCN(c2nc(-c3ccc(Br)cc3)no2)CC1 [Example 40, N-{1-[3-(4-Bromo-phenyl)-[1,2,4]oxadiazol-5-yl]-piperidin-4-yl}-N-cyclopropyl-4-oxazol-5-yl-benzamide] |
| 38 nM | Cc1ncoc1-c1ccc(C(=O)N(C2CC2)C2CCN(c3nc(-c4ccccc4)no3)CC2)cc1 [Example 41, N-Cyclopropyl-4-(4-methyl-oxazol-5-yl)-N-[1-(3-phenyl-[1,2,4]oxadiazol-5-yl)-piperidin-4-yl]-benzamide] |
| 17 nM | Cc1ncoc1-c1ccc(C(=O)N(C2CC2)C2CCN(c3nc(C(C)C)no3)CC2)cc1 [Example 42, N-Cyclopropyl-N-[1-(3-isopropyl-[1,2,4]oxadiazol-5-yl)-piperidin-4-yl]-4-(4-methyl-oxazol-5-yl)-benzamide] |
| 46 nM | Cc1ncoc1-c1ccc(C(=O)N(C2CC2)C2CCN(c3ncc(Cl)cn3)CC2)cc1 [Example 43, N-[1-(5-Chloro-pyrimidin-2-yl)-piperidin-4-yl]-N-cyclopropyl-4-(4-methyl-oxazol-5-yl)-benzamide] |
| 31 nM | COc1ccc(-c2noc(N3CCC(N(C(=O)c4ccc(-c5cnco5)cc4)C4CC4)CC3)n2)cc1 [Example 44, N-Cyclopropyl-N-{1-[3-(4-methoxy-phenyl)-[1,2,4]oxadiazol-5-yl]-piperidin-4-yl}-4-oxazol-5-yl-benzamide] |
| 259 nM | CCOC(=O)c1noc(N2CCC(N(C(=O)c3ccc(-c4cnco4)cc3)C3CC3)CC2)n1 [Example 45, 5-{4-[Cyclopropyl-(4-oxazol-5-yl-benzoyl)-amino]-piperidin-1-yl}-[1,2,4]oxadiazole-3-carboxylic acid ethyl ester] |

Further lines, the compound ahead of its results:

| Compound | EC50 |
| --- | --- |
| O=C(c1ccc(-c2cnco2)cc1)N(C1CC1)C1CCN(c2ccc(Br)cn2)CC1 [Example 32, N-[1-(5-Bromo-pyridin-2-yl)-piperidin-4-yl]-N-cyclopropyl-4-oxazol-5-yl-benzamide] | 38 nM |
| O=C(c1ccc(-c2cnco2)cc1)N(C1CC1)C1CCN(c2ccc(F)cn2)CC1 [Example 33, N-Cyclopropyl-N-[1-(5-fluoro-pyridin-2-yl)-piperidin-4-yl]-4-oxazol-5-yl-benzamide] | 276 nM |
| Cc1ccc(N2CCC(N(C(=O)c3ccc(-c4cnco4)cc3)C3CC3)CC2)nc1 [Example 34, N-Cyclopropyl-N-[1-(5-methyl-pyridin-2-yl)-piperidin-4-yl]-4-oxazol-5-yl-benzamide] | 85 nM |
| O=C(c1ccc(-c2cnco2)cc1)N(C1CC1)C1CCN(c2nc(Cl)ns2)CC1 [Example 35, N-[1-(3-Chloro-[1,2,4]thiadiazol-5-yl)-piperidin-4-yl]-N-cyclopropyl-4-oxazol-5-yl-benzamide] | 53 nM |
| CC(C)Nc1nsc(N2CCC(N(C(=O)c3ccc(-c4cnco4)cc3)C3CC3)CC2)n1 [Example 36, N-Cyclopropyl-N-[1-(3-isopropylamino-[1,2,4]thiadiazol-5-yl)-piperidin-4-yl]-4-oxazol-5-yl-benzamide] | 83 nM |
| CC(C)Oc1nsc(N2CCC(N(C(=O)c3ccc(-c4cnco4)cc3)C3CC3)CC2)n1 [Example 37, N-Cyclopropyl-N-[1-(3-isopropoxy-[1,2,4]thiadiazol-5-yl)-piperidin-4-yl]-4-oxazol-5-yl-benzamide] | 55 nM |
